Measured values published in the OPERA property sets (Mansouri et al. 2018).

Conditions: not given

Row | Structure (SMILES) | log10 Henry constant (atm·m³/mol) | log10 Koa | log10 vapour pressure (mmHg) | melting point [°C] | boiling point [°C] | ready biodegradability | log10 biodegradation half-life (days) | log10 Koc (L/kg)
1 | Clc1cc(Cl)c(-c2ccccc2)cc1Cl | -3.7 | 8 | -3.01 | 76.3 |  |  |  | 
2 | CCC(C)(C)C(C)(C)CC |  |  |  |  | 170 |  |  | 
3 | CC(C)NCC(O)c1ccc(O)c(O)c1 (stereo unspecified) |  |  |  | 170 |  |  |  | 
4 | COc1cccc(F)c1 |  |  |  | -35 | 159 |  |  | 
5 | C#C |  |  | 4.56 | -80.7 | -84.7 |  |  | 
6 | Clc1ccc(Oc2cc(Cl)ccc2Cl)cc1 |  |  | -3.76 |  |  |  |  | 
7 | CC1=CCC2C(=O)OC(=O)C2C1 (stereo unspecified) |  |  |  |  |  | not readily biodegradable |  | 
8 | C=CC1CCC1C=C (stereo unspecified) |  |  |  |  | 112 |  |  | 
9 | N#CCC(N)=C(C#N)C#N |  |  |  | 172 |  |  |  | 
10 | C=CCBr |  |  |  | -119 | 70.1 |  |  | 
11 | c1ccc2c(c1)Cc1cc3ccccc3cc1-2 |  |  | -7.26 | 212 |  |  |  | 
12 | CC1=CC(=O)CC1 |  |  |  |  | 158 |  |  | 
13 | CC1=CCCC(C)(C)C1CO (stereo unspecified) |  |  |  |  | 215 |  |  | 
14 | ClCc1ccccc1CCl |  |  |  | 55 | 240 |  |  | 
15 | CSc1ccc(O)cc1C |  |  |  |  |  | not readily biodegradable |  | 
16 | O=C(O)C(Cl)=C(Cl)Cl |  |  |  | 76 | 222 |  |  | 
17 | CC#CC=CC |  |  |  |  | 88.5 |  |  | 
18 | O=C(O)C1=CCCCC1 |  |  |  | 38 | 241 |  |  | 
19 | O=C(O)C=Cc1cccc(C(F)(F)F)c1 |  |  |  | 136 |  |  |  | 
20 | CC(C)(C)C(=O)OCOC(=O)[C@@H]1N2C(=O)[C@@H](N=CN3CCCCCC3)[C@H]2SC1(C)C |  |  |  | 119 |  |  |  | 
21 | Fc1cccc(Br)c1 |  |  |  |  | 150 |  |  | 
22 | Cc1cc(C)c(O)c(C(C)(C)C)c1 |  |  | -1.35 | 22.3 | 249 | not readily biodegradable |  | 
23 | CCCCCCCCCCCCCCCCCCCCCCC |  |  | -4.76 | 47.6 | 380 | readily biodegradable | 2.16 | 
24 | O=C/C(Cl)=C(/Cl)C(=O)O |  |  |  | 127 |  |  |  | 
25 | Cc1ccsc1C |  |  |  | -49 | 142 |  |  | 

Row | Structure (SMILES) | log10 Henry constant (atm·m³/mol) | log10 Koa | log10 vapour pressure (mmHg) | melting point [°C] | boiling point [°C] | ready biodegradability | log10 biodegradation half-life (days) | log10 Koc (L/kg)
26 | Nc1ccc(Nc2ccc(N)cc2)cc1 |  |  |  | 158 |  |  |  | 
27 | C=C(Cl)CCl |  |  | 1.79 |  | 94 |  |  | 
28 | Cc1ccc2[nH]ccc2c1 |  |  |  | 60 | 267 |  |  | 
29 | Clc1c(Cl)c(Cl)c2ccccc2c1Cl |  | 8.3 | -5.54 | 198 |  |  |  | 
30 | CCCCc1nc(Cl)c(CO)n1Cc1ccc(-c2ccccc2-c2nnn[nH]2)cc1 |  |  |  | 184 |  |  |  | 
31 | CCCCCCCC/C=C\CCCCCCCC(=O)O |  |  | -5.85 |  | 360 | readily biodegradable |  | 
32 | O=C(O)Cc1cn(-c2ccccc2)nc1-c1ccc(Cl)cc1 |  |  |  | 150 |  |  |  | 
33 | C=C(Cl)CSC(=S)N(CC)CC |  |  | -2.66 |  |  |  |  | 
34 | CCCCCC[C@H](C)S |  |  | -0.147 |  |  |  |  | 
35 | CCCCC(C)Br (stereo unspecified) |  |  | 0.86 |  | 144 |  |  | 
36 | Cc1ccn2nc(S(=O)(=O)Nc3c(F)cccc3F)nc2n1 |  |  | -11.6 | 252 |  |  |  | 1.45
37 | O=C(O)c1cccc2c(Cl)cccc12 |  |  |  | 245 |  |  |  | 
38 | O=C(O)Cc1cccc(F)c1 |  |  |  | 43 |  |  |  | 
39 | Clc1ccc2ccccc2c1 | -3.49 | 5.8 | -1.91 | 61 | 256 |  |  | 
40 | C=C[C@@]1(C)C=C2CC[C@@H]3[C@](C)(CCC[C@@]3(C)C(=O)O)[C@H]2CC1 |  |  |  | 218 |  |  |  | 
41 | CCCC[Si](C)(C)Cl |  |  |  |  | 139 |  |  | 
42 | C[C@]12CC[C@@H]3c4ccc(O)cc4CC[C@H]3[C@@H]1C[C@@H](O)[C@@H]2O |  |  |  | 282 |  |  |  | 
43 | C=CCc1ccc(OC)cc1 |  |  |  |  | 216 |  |  | 
44 | COc1ccc(CCNCC(O)COc2cccc(C)c2)cc1OC (stereo unspecified) |  |  |  | 138 |  |  |  | 
45 | CCc1c(C)[nH]c2c1C(=O)C(CN1CCOCC1)CC2 (stereo unspecified) |  |  |  | 180 |  |  |  | 
46 | CC(=O)C(=O)c1ccccc1 |  |  |  |  | 222 |  |  | 
47 | CCC(CC)COCCC(=O)O |  |  |  | 32.5 | 343 |  |  | 
48 | c1ccc(CNc2ccccc2)cc1 |  |  |  | 37.5 | 306 |  |  | 
49 | CCCc1ccncc1 |  |  |  |  | 185 |  |  | 
50 | CC=C(C)C(C)C(C)=O (stereo unspecified) |  |  |  |  | 154 |  |  | 

Row | Structure (SMILES) | log10 Henry constant (atm·m³/mol) | log10 Koa | log10 vapour pressure (mmHg) | melting point [°C] | boiling point [°C] | ready biodegradability | log10 biodegradation half-life (days) | log10 Koc (L/kg)
51 | CC(=O)/C(C)=N/O |  |  |  | 76.8 | 186 |  |  | 
52 | CC(C)C(C)(O)C(C)C |  |  |  |  | 156 |  |  | 
53 | NNc1ccc(Br)cc1 |  |  |  | 108 |  |  |  | 
54 | N#CSCSc1nc2ccccc2s1 |  |  |  |  |  | not readily biodegradable |  | 
55 | CCCC(C)COC(C)=O (stereo unspecified) |  |  |  |  | 163 |  |  | 
56 | NC(=O)N=NC(N)=O |  |  | -9.73 |  |  | not readily biodegradable |  | 
57 | CCOP(=S)(OCC)SCn1nnc2ccccc2c1=O |  |  |  | 53 |  |  |  | 
58 | CC(C)(Br)C(=O)Br |  |  |  |  | 163 |  |  | 
59 | O=C(O)C1C2CCC(O2)C1C(=O)O (stereo unspecified) |  |  | -9.8 | 144 |  |  |  | 2.09
60 | CCCCCCCCCCCCCOP(Oc1ccccc1)Oc1ccccc1 |  |  |  |  |  | not readily biodegradable |  | 
61 | CC1CC=CC1 |  |  |  | -161 | 65.7 |  |  | 
62 | Cn1c(=S)sc2ccccc21 |  |  |  | 90 | 335 |  |  | 
63 | C[C@@H]1CC[C@@]2(OC1)O[C@H]1C[C@H]3[C@@H]4CC[C@H]5C[C@@H](O)CC[C@]5(C)[C@H]4CC[C@]3(C)[C@H]1[C@@H]2C |  |  |  | 197 |  |  |  | 
64 | c1ccc(COP(OCc2ccccc2)OCc2ccccc2)cc1 |  |  |  |  |  | readily biodegradable |  | 
65 | O=C1OCCN1/N=C/c1ccc([N+](=O)[O-])o1 |  |  |  | 255 |  |  |  | 
66 | CCCCCCCC(C)CC (stereo unspecified) |  |  |  | -92.9 | 188 |  |  | 
67 | C=CCc1ccc2c(c1)OCO2 |  |  |  | 11.2 | 234 |  |  | 2.83
68 | N#Cc1ccc(Cl)cc1N |  |  |  | 161 |  |  |  | 
69 | COC(C)=O | -3.94 | 2.31 | 2.33 | -98 | 56.8 | readily biodegradable |  | 
70 | COc1cc(-c2coc3cc(O)c(OC)c(O)c3c2=O)cc(O)c1OC |  |  |  | 185 |  |  |  | 
71 | BrCCCCCCCCCCCCCCBr |  |  |  | 50.4 |  |  |  | 
72 | CCSCCO |  |  |  | -100 | 184 |  |  | 
73 | Nc1ccc2ncccc2c1 |  |  | -4.79 | 114 |  |  |  | 
74 | Cc1ccc(Cl)c(C)c1 |  |  |  | -32.5 | 184 |  |  | 
75 | CC[N+](C)(CC)CCOC(=O)C(O)(c1cccs1)C1CCCC1.[Br-] (stereo unspecified) |  |  |  | 125 |  |  |  | 

Row | Structure (SMILES) | log10 Henry constant (atm·m³/mol) | log10 Koa | log10 vapour pressure (mmHg) | melting point [°C] | boiling point [°C] | ready biodegradability | log10 biodegradation half-life (days) | log10 Koc (L/kg)
76 | CCc1cccc(N)c1 |  |  |  | -64 | 214 |  |  | 
77 | c1ccc2nc3ccccc3nc2c1 |  |  |  | 176 |  |  |  | 3.37
78 | O=C1CCCCCC1c1ccccc1 (stereo unspecified) |  |  |  | 22.2 |  |  |  | 
79 | CC(Oc1ccc2ccccc2c1)C(O)=Nc1ccccc1 (stereo unspecified) |  |  | -10.7 | 128 |  |  |  | 
80 | CCOCOC(=O)c1ccccc1Nc1c(Cl)ccc(C)c1Cl |  |  |  | 73.5 |  |  |  | 
81 | CC1CCSCC1 |  |  |  | -28 | 159 |  |  | 
82 | Clc1ccc(-c2cc(Cl)c(Cl)c(Cl)c2Cl)cc1 |  |  |  | 98 |  |  |  | 
83 | C=CCOC(=O)OCCOCCOC(=O)OCC=C |  |  |  | -4 |  | readily biodegradable |  | 
84 | ClC(Cl)(Br)CBr |  |  | -0.0458 | -26 | 195 |  |  | 
85 | Fc1cccc(F)c1-c1nnc(-c2ccccc2Cl)nn1 |  |  |  | 188 |  |  |  | 
86 | CCCCCCCCCF |  |  |  | 1 | 168 |  |  | 
87 | C=C1COC2(OCCCO2)OC1 |  |  |  |  |  | not readily biodegradable |  | 
88 | Cc1ccc(O)c(C=O)c1 |  |  |  | 56 | 218 |  |  | 
89 | Oc1ccc(Cl)cc1Cc1ccccc1 |  |  | -5.85 | 48.5 |  | readily biodegradable |  | 
90 | CCCCC(=O)O[C@]1(C(=O)CO)CC[C@H]2[C@@H]3CCC4=CC(=O)CC[C@]4(C)[C@H]3[C@@H](O)C[C@@]21C |  |  |  | 218 |  |  |  | 
91 | FC(F)(F)C(Cl)C(F)(F)F |  |  |  | -120 | 14.1 |  |  | 
92 | COC(=O)[C@@H]1[C@H]2C[C@H]3c4[nH]c5ccccc5c4CCN3C[C@@H]2CC[C@@H]1O |  |  |  | 251 |  |  |  | 
93 | C#CC1(O)CCCC1 |  |  |  | 27 | 158 |  |  | 
94 | Nc1ccc2ccccc2c1S(=O)(=O)O |  |  |  | 180 |  | not readily biodegradable |  | 
95 | CC(C)=CC1C(C(=O)OCc2coc(Cc3ccccc3)c2)C1(C)C (stereo unspecified) |  |  |  | 44.2 |  |  |  | 5
96 | C=C(NC(C)=O)C(=O)CCC(N)=O |  |  |  | 130 |  |  |  | 
97 | CCCCCCCCCCC/C=C\CCCCC(=O)O |  |  |  | 29.8 |  |  |  | 
98 | CCCCCCCCCC=CC(=O)O |  |  |  | 17.1 |  |  |  | 
99 | CNC(N)=S |  |  |  | 120 |  |  |  | 

Same assay, conditions: fish

Row | Structure (SMILES) | log10 BCF | log10 biotransformation half-life (days)
100 | Clc1cc(Cl)c(-c2ccccc2)cc1Cl | 3.78 | 1.84
101 | c1ccc2c(c1)Cc1cc3ccccc3cc1-2 |  | -0.39
102 | Clc1c(Cl)c(Cl)c2ccccc2c1Cl | 3.7 | 1.2
103 | Clc1ccc2ccccc2c1 | 3.63 | 
104 | C=C[C@@]1(C)C=C2CC[C@@H]3[C@](C)(CCC[C@@]3(C)C(=O)O)[C@H]2CC1 | 1.92 | 
105 | N#CSCSc1nc2ccccc2s1 | 2.32 | -1.01
106 | Clc1ccc(-c2cc(Cl)c(Cl)c(Cl)c2Cl)cc1 |  | 2.36
107 | Nc1ccc2ccccc2c1S(=O)(=O)O | 0.78 | 
